Holding throughout (type): cell-based
Experiment [1] relates to Asaia siamensis SUN03. In words: Antimicrobial activity (MIC), Asaia siamensis SUN03. The settings on record: potato dextrose broth pH 3.8, visual evaluation; for MIC: read-out: Minimal Inhibitory Concentration (MIC).
The subject of experiment [2] is Alicyclobacillus acidoterrestris DSM 2498. Briefly: Antimicrobial activity (MIC), Alicyclobacillus acidoterrestris DSM 2498. The settings on record: DSM2498, potato dextrose broth pH 3.8, visual evaluation, read-out: Minimal Inhibitory Concentration (MIC).
Experiment [3] deals with Bacillus subtilis ATCC 6633. In words: Antimicrobial activity (MIC), Bacillus subtilis ATCC 6633. The settings on record: ATCC6633, potato dextrose broth pH 3.8, visual evaluation, read-out: Minimal Inhibitory Concentration (MIC).
The subject of experiment [4] is Brettanomyces sp SUN08. Briefly: Antimicrobial activity (MIC), Brettanomyces sp SUN08. The settings on record: potato dextrose broth pH 3.8, visual evaluation, read-out: Minimal Inhibitory Concentration (MIC).
Experiment [5] relates to Byssochlamys fulva DSM 1808. Briefly: Antimicrobial activity (MIC), Byssochlamys fulva DSM 1808. The settings on record: Paecilomyces fulvus, DSM1808, potato dextrose broth pH 3.8, visual evaluation, read-out: Minimal Inhibitory Concentration (MIC).
Experiment [6] relates to Byssochlamys nivea SUN10. In words: Antimicrobial activity (MIC), Byssochlamys nivea SUN10. The settings on record: Paecilomyces niveus, potato dextrose broth pH 3.8, visual evaluation, read-out: Minimal Inhibitory Concentration (MIC).
Experiment [7] concerns Candida albicans ATCC10231. In words: Antimicrobial activity (MIC), Candida albicans ATCC10231. The settings on record: potato dextrose broth pH 3.8, visual evaluation, read-out: Minimal Inhibitory Concentration (MIC).
Experiment [8] has as its system Candida parapsilosis SUN05. In words: Antimicrobial activity (MIC), Candida parapsilosis SUN05. The settings on record: Lodderomyces parapsilosis, potato dextrose broth pH 3.8, visual evaluation, read-out: Minimal Inhibitory Concentration (MIC).
Experiment [9] concerns Clostridium sporogenes ATCC19404. Briefly: Antimicrobial activity (MIC), Clostridium sporogenes ATCC19404. The settings on record: potato dextrose broth pH 3.8, visual evaluation, read-out: Minimal Inhibitory Concentration (MIC). The protocol: Compounds are dissolved at a concentration of 20 mg/mL using 100% DMSO. • Preculture: yeast and bacteria are plated on potato dextrose agar, resuspended in potato dextrose broth and CFU via OD measurement determined; adjusting CFU of the strain in PDB pH 3.8 • Preculture: for mycel forming fungi spores were directly used after thawing of cryopreserved stocks of known titre • Final titre used for the assay: Yeast strains 5*10^3 CFU/ml, Bacteria 1*10^6 CFU/ml, Fungi (spores) 5*10^4 CFU/ml • Potato dextrose broth pH 3.8 was used as assay matrix • 500 ppm (0.05%) of the compounds were screened (final DMSO 2.5% (v/v)) • Volume: 100 μl in 96-well format • Positive controls: potassium sorbate, sodium benzoate & triclosan • 28° C. to 30° C., static incubation • Incubation time depending on spoilage organism between 2 and 8 days • Visual evaluation (per eye, for fungi with binocular magnification)

Experiment [10] concerns Corynebacterium xerosis DSM 20743. Briefly: Antimicrobial activity (MIC), Corynebacterium xerosis DSM 20743. The settings on record: DSM20743, potato dextrose broth pH 3.8, visual evaluation, read-out: Minimal Inhibitory Concentration (MIC).
In experiment [11] the test system is Dekkera naardenensis CBS 6115. In words: Antimicrobial activity (MIC), Dekkera naardenensis CBS 6115. The settings on record: Brettanomyces naardenensis, CBS6115, potato dextrose broth pH 3.8, visual evaluation, read-out: Minimal Inhibitory Concentration (MIC).
Experiment [12] relates to Enterococcus faecalis ATCC 7080. In words: Antimicrobial activity (MIC), Enterococcus faecalis ATCC 7080. The settings on record: ATCC7080, potato dextrose broth pH 3.8, visual evaluation, read-out: Minimal Inhibitory Concentration (MIC).
Experiment [13] has as its system Lactobacillus paracasei ssp. paracasei DSM 46331. Briefly: Antimicrobial activity (MIC), Lactobacillus paracasei ssp. paracasei DSM 46331. The settings on record: Lacticaseibacillus paracasei, DSM46331, potato dextrose broth pH 3.8, visual evaluation, read-out: Minimal Inhibitory Concentration (MIC).
Experiment [14] relates to Leuconostoc lactis DSM 20202. Briefly: Antimicrobial activity (MIC), Leuconostoc lactis DSM 20202. The settings on record: DSM20202, potato dextrose broth pH 3.8, visual evaluation, read-out: Minimal Inhibitory Concentration (MIC).
The test system of experiment [15] is Leuconostoc mesenteroides DSM 20343. Briefly: Antimicrobial activity (MIC), Leuconostoc mesenteroides DSM 20343. The settings on record: DSM20343, potato dextrose broth pH 3.8, visual evaluation, read-out: Minimal Inhibitory Concentration (MIC).
Experiment [16] relates to Malassezia furfur DSM 6170. Briefly: Antimicrobial activity (MIC), Malassezia furfur DSM 6170. The settings on record: DSM6170, potato dextrose broth pH 3.8, visual evaluation, read-out: Minimal Inhibitory Concentration (MIC).
Experiment [17] deals with Neosartorya fischeri SUN09. In words: Antimicrobial activity (MIC), Neosartorya fischeri SUN09. The settings on record: Aspergillus fischeri, potato dextrose broth pH 3.8, visual evaluation, read-out: Minimal Inhibitory Concentration (MIC).
Experiment [18] deals with Penicillium expansum DSM 62841. Briefly: Antimicrobial activity (MIC), Penicillium expansum DSM 62841. The settings on record: DSM62841, potato dextrose broth pH 3.8, visual evaluation, read-out: Minimal Inhibitory Concentration (MIC).
In experiment [19] the test system is Penicillium paneum SUN04. Briefly: Antimicrobial activity (MIC), Penicillium paneum SUN04. The settings on record: potato dextrose broth pH 3.8, visual evaluation, read-out: Minimal Inhibitory Concentration (MIC).
The test system of experiment [20] is Saccharomyces cerevisiae DSM 2548. Briefly: Antimicrobial activity (MIC), Saccharomyces cerevisiae DSM 2548. The settings on record: DSM2548, potato dextrose broth pH 3.8, visual evaluation, read-out: Minimal Inhibitory Concentration (MIC).
Experiment [21] deals with Saccharomyces cerevisiae SUN01. In words: Antimicrobial activity (MIC), Saccharomyces cerevisiae SUN01. The settings on record: potato dextrose broth pH 3.8, visual evaluation, read-out: Minimal Inhibitory Concentration (MIC).
In experiment [22] the test system is Saccharomyces cerevisiae SUN06. In words: Antimicrobial activity (MIC), Saccharomyces cerevisiae SUN06. The settings on record: potato dextrose broth pH 3.8, visual evaluation, read-out: Minimal Inhibitory Concentration (MIC).
Experiment [23] deals with Yarrowia lipolytica DSM 70561. Briefly: Antimicrobial activity (MIC), Yarrowia lipolytica DSM 70561. The settings on record: DSM70561, potato dextrose broth pH 3.8, visual evaluation, read-out: Minimal Inhibitory Concentration (MIC).
The subject of experiment [24] is Zygosaccharomyces bailii DSM 70834. Briefly: Antimicrobial activity (MIC), Zygosaccharomyces bailii DSM 70834. The settings on record: DSM70834, potato dextrose broth pH 3.8, visual evaluation, read-out: Minimal Inhibitory Concentration (MIC).
Experiment [25] deals with Zygosaccharomyces bailli SUN02. In words: Antimicrobial activity (MIC), Zygosaccharomyces bailli SUN02. The settings on record: potato dextrose broth pH 3.8, visual evaluation, read-out: Minimal Inhibitory Concentration (MIC).
The subject of experiment [26] is Zygosaccharomyces bailli SUN07. In words: Antimicrobial activity (MIC), Zygosaccharomyces bailli SUN07. The settings on record: potato dextrose broth pH 3.8, visual evaluation, read-out: Minimal Inhibitory Concentration (MIC).
Experiment [27] relates to Zygosaccharomyces rouxii DSM 7525. Briefly: Antimicrobial activity (MIC), Zygosaccharomyces rouxii DSM 7525. The settings on record: DSM7525, potato dextrose broth pH 3.8, visual evaluation, read-out: Minimal Inhibitory Concentration (MIC).
Experiment [28] has as its system Gluconacetobacter liquefaciens DSM 5603. Briefly: Antimicrobial activity (MIC), Gluconacetobacter liquefaciens DSM 5603. The settings on record: DSM5603, potato dextrose broth pH 3.8, visual evaluation, read-out: Minimal Inhibitory Concentration (MIC).
The subject of experiment [29] is Aspergillus brasiliensis DSM 1988. Briefly: Antimicrobial activity (MIC), Aspergillus brasiliensis DSM 1988. The settings on record: DSM1988, potato dextrose broth pH 3.8, visual evaluation, read-out: Minimal Inhibitory Concentration (MIC).
For experiment [30], the system named is Bacillus licheniformis DSM 13. Briefly: Antimicrobial activity (MIC), Bacillus licheniformis DSM 13. The settings on record: DSM13, potato dextrose broth pH 3.8, visual evaluation, read-out: Minimal Inhibitory Concentration (MIC).
The test system of experiment [31] is Candida parapsilosis ATCC 20384. Briefly: Antimicrobial activity (MIC), Candida parapsilosis ATCC 20384. The settings on record: Lodderomyces parapsilosis, ATCC20384, potato dextrose broth pH 3.8, visual evaluation, read-out: Minimal Inhibitory Concentration (MIC).
Experiment [32] concerns Clostridium perfringens DSM756. Briefly: microbe, parasite or virus in culture. The settings on record: DSM756, pH 3.8, read-out: Minimal Inhibitory Concentration (MIC).

Molecules are shown by their SMILES. Converted amounts (≈) assume the structure as drawn.

These results are taken from patent US20260041095A1, “A PRESERVATION METHOD” (AnalytiCon Discovery - Zweigniederlassung der BRAIN Biotech …, priority 2022, published 2026).

In the case of `CCCC(O)CC(=O)O[C@H]1[C@H](O[C@H]2[C@H](O)[C@@H](O)[C@H](OCC(O)CCCCCCCCCCCCC(O)C(=O)O)O[C@@H]2COC(C)=O)O[C@H](CO)[C@@H](O)[C@@H]1O` (stereo partly shown) [NP-018217], the MIC in experiment [1] was 500 µg/mL (≈ 637 µM); in [2], 240 µg/mL (≈ 306 µM); in experiment [3] it was 600 µg/mL (≈ 764 µM); in experiment [4], at most 125 µg/mL; in experiment [5] it was 80 µg/mL (≈ 102 µM); in [6], at most 31.2 µg/mL. In addition, the MIC in experiment [7] was 80 µg/mL (≈ 102 µM); in experiment [8], at most 125 µg/mL; in [9], 80 µg/mL (≈ 102 µM); in [10], 240 µg/mL (≈ 306 µM); in experiment [11], 240 µg/mL (≈ 306 µM); in experiment [12], 240 µg/mL (≈ 306 µM). Besides, the MIC in experiment [13] is 80 µg/mL (≈ 102 µM); in experiment [14], 250 µg/mL (≈ 319 µM); in [15] it was 240 µg/mL (≈ 306 µM); in experiment [16], 80 µg/mL (≈ 102 µM); in experiment [17] it was at most 31.2 µg/mL; in experiment [18], 240 µg/mL (≈ 306 µM). In addition, the MIC in experiment [19] was at most 31.2 µg/mL; in [20], 240 µg/mL (≈ 306 µM); in experiment [21], at most 125 µg/mL; in experiment [22], at most 125 µg/mL; in [23], 240 µg/mL (≈ 306 µM); in experiment [24], 80 µg/mL (≈ 102 µM). Besides, the values for the MIC in experiment [25], in experiment [26] and in [27] were at most 125 µg/mL, 500 µg/mL (≈ 637 µM) and 240 µg/mL (≈ 306 µM), respectively.
Turning to `O=C(O)CCCCCCCCCCCCCC(O)CO[C@@H]1O[C@H](COC(=O)O)[C@@H](O[C@@H]2O[C@H](CO)[C@@H](O)[C@H](O)[C@H]2OC(=O)CC(O)CCO)[C@H](O)[C@H]1O` (stereo partly shown) [NP-018250], the MIC in experiment [1] was at most 125 µg/mL; in [3] it was 250 µg/mL (≈ 323 µM); in experiment [4], 125 µg/mL (≈ 162 µM); in experiment [6], 125 µg/mL (≈ 162 µM); in experiment [8] it was 125 µg/mL (≈ 162 µM); in experiment [9] it was 250 µg/mL (≈ 323 µM). Besides, the MIC in [12] was 250 µg/mL (≈ 323 µM); in experiment [28] it was 250 µg/mL (≈ 323 µM); in experiment [14], 250 µg/mL (≈ 323 µM); in [17] it was 125 µg/mL (≈ 162 µM); in experiment [19], 125 µg/mL (≈ 162 µM); in experiment [21], 125 µg/mL (≈ 162 µM). Also, the MIC in experiment [22], in experiment [25] and in experiment [26] was 125 µg/mL (≈ 162 µM) throughout.
With `CCCCCC(O)CC(=O)O[C@H]1[C@H](O[C@H]2[C@H](O)[C@@H](O)[C@H](OCC(O)CCCCCCCCCCCCC(O)C(=O)O)O[C@@H]2COC(C)=O)O[C@H](CO)[C@@H](O)[C@@H]1O` (stereo partly shown) [NP-018256], in [1], the “Minimal Inhibitory Concentration (MIC)” value is recorded as “inact”. For the same molecule, the MIC is 240 µg/mL (≈ 295 µM) in experiment [2]; 240 µg/mL (≈ 295 µM) in experiment [29]; 240 µg/mL (≈ 295 µM) in experiment [30]; at most 125 µg/mL in [4]; at most 125 µg/mL in experiment [6]; 80 µg/mL (≈ 98.4 µM) in experiment [7]. In addition, the MIC is 240 µg/mL (≈ 295 µM) in experiment [31]; at most 125 µg/mL in experiment [8]; 80 µg/mL (≈ 98.4 µM) in [32]; 80 µg/mL (≈ 98.4 µM) in experiment [9]; 1200 µg/mL (≈ 1480 µM) in [10]; 80 µg/mL (≈ 98.4 µM) in experiment [11]. The MIC in experiment [13] is 240 µg/mL (≈ 295 µM); in experiment [14], 240 µg/mL (≈ 295 µM); in experiment [15], 240 µg/mL (≈ 295 µM); in experiment [16], 80 µg/mL (≈ 98.4 µM); in [17], at most 125 µg/mL; in experiment [18] it was 240 µg/mL (≈ 295 µM). Also, the MIC in experiment [19] is at most 125 µg/mL; in [20], 240 µg/mL (≈ 295 µM); in [21], at most 125 µg/mL; in experiment [22], at most 125 µg/mL; in experiment [23], 240 µg/mL (≈ 295 µM); in experiment [24] it was 80 µg/mL (≈ 98.4 µM). The MIC is at most 125 µg/mL in experiment [25], 500 µg/mL (≈ 615 µM) in experiment [26] and 80 µg/mL (≈ 98.4 µM) in experiment [27].
